Measured values published in article PMC8950868, “Identifying Human PTP1B Enzyme Inhibitors from Marine Natural Products: Perspectives for Developing of Novel Insulin-Mimetic Drugs” (Pharmaceuticals, 2022).
“Also recorded” adds a separate entry of the source.

Columns and labels:
human recombinant AR = molecular target: T1, human recombinant AR (Homo sapiens, UniProt P15121); test: AR enzymatic assay (NADPH oxidation, L-idose substrate); type: biochemical; settings: for remaining activity at 71 µM: 71 µM (maximal concentration used), read-out: % residual activity of human AR
T1 construct: made in house
Protocol: The human recombinant AR, purified to electrophoretic homogeneity as described, was used as target enzyme. AR activity was determined at 37 °C as previously described by evaluating the decrease in absorbance at 340 nm linked to NADPH oxidation using a Biochrom Libra S60 spectrophotometer. The standard assay mixture contained 0.25 M sodium phosphate buffer pH 6.8, 0.18 mM NADPH, 0.42 M ammonium sulfate, 0.5 mM EDTA and 4.7 mM D,L-glyceraldehyde. One unit of enzyme activity is the amount that catalyses the conversion of 1 µmol of substrate/min in the above assay conditions. For AR inhibition studies, 0.8 mM L-idose was used as substrate in the conditions described above, in the presence of 10 mU of enzyme and of a final concentration of DMSO of 0.7% (v/v).

PTP1B = molecular target: T2, PTP1B (Homo sapiens, UniProt P18031); test: Dilution (reversibility) assay with PTP1B; type: biochemical; settings: 50 µM, 1 h at 37 °C, then diluted 500 fold
T2 construct: human recombinant PTP1B (1–302)
T2 sequence (P18031 1-302): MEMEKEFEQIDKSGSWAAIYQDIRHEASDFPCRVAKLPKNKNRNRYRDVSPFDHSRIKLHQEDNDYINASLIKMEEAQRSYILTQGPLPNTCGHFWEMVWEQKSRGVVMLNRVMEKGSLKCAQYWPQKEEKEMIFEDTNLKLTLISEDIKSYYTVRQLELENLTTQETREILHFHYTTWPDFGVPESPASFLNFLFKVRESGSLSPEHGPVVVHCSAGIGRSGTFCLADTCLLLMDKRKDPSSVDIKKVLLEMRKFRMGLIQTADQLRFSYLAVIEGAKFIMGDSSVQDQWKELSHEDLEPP
Protocol: A dilution test was carried out to evaluate if the compound behaves as reversible or irreversible inhibitor of PTP1B. Briefly, an aliquot of the enzyme was diluted with different concentration of inhibitor and the samples incubated at 37 °C for 1 h. After this time, an aliquot of these samples was diluted 500 times in the assay buffer containing 2.5 mM p-NPP, to evaluate whether the enzyme is able to recover its activity since the final concentration of inhibitor is now far away from its IC50 value. Control test was carried out diluting the enzyme with an equal volume of deionised water. All tests were performed in triplicate.
Figure 4 Dilution assay. To evaluate the mechanism of action of the compounds, a reversibility assay was carried out. The PTP1B was incubated in the presence of the saturating concentration of each compound (50 µM) for 1 h at 37 °C. Then, an aliquot of enzyme was diluted 500 folds in the assay buffer to evaluate the residual activity of the enzyme. Tests were carried out in triplicate. Data represent the mean value ± SD.

C2C12 cells = test: Insulin signalling pathway analysis (western blot of pIR and pAkt); type: cell-based, murine; settings: for Effect on insulin signalling pathway: differentiated C2C12 cells
Protocol: C2C12 cells were plated on P35 dishes, grown until 80% confluence and then incubated in the presence of differentiation medium (DMEM-high glucose (4500 mg/L) supplemented with 2% Horse serum (HS, Euroclone), 2 mM glutamine, 100 U/mL penicillin, and 100 μg/mL streptomycin) for 4 days. After this time, cell plates were washed with PBS and cells stimulated with 10 nM insulin, compound 3 or insulin-compound 3 combination for 30 min. After cell plates were washed with cold PBS solution and lysed using 1X Leammli sample buffer. Samples were store at 4 °C for 15 min and then protein solutions were collected and boiled for 5 min. Proteins were analysed by SDS-PAGE and then transferred on a PVDF membrane by western blot. Phosphorylation status of insulin receptor and the kinase Akt was evaluated using specific antibodies (pIR β subunit, Y1162/1163 (sc-25103-R) and β-actin, clone C-4 (sc-47778) were from Santa Cruz Biotechnology (Santa Cruz, CA, USA); IR β subunit, clone CT-3 (MABS65) was from Merck-Millipore (Burlington, MA, USA). Akt (9272S) and p-Akt (9271S) antibodies were from Cell Signalling Technology (Danvers, MA, USA). Secondary antibodies were from Santa Cruz Biotechnology (Santa Cruz, CA, USA). Detection was performed using Clarity western ECL substrates (Bio-Rad Laboratories, Inc.).
Figure 12 Effect of compound 3 on insulin signalling pathway. C2C12 cells were incubated with compound 3 (20 µM final concentration) for 30 min, in the presence or not of insulin (10 nM). After that, cells were lysed, and cellular extracts were analysed to evaluate the phosphorylation status of IR and Akt. (A), western blot image; (B,C), quantitation of western blot carried out using Kodak MI software. Data were normalized respect to control sample. All tests were carried out in triplicate. Ctr: control experiment; Ins: cells treated with 10 nM insulin; 3: cells treated with compound 3 (20 µM); 3 + Ins, cells treated with insulin and compound 3. Statistical analysis was carried out using one way ANOVA followed by Tukey’s HSD test for pairwise comparisons. * p < 0.05.

[1] = 20 µM compound + 10 nM insulin, versus insulin alone
[2] = 20 µM compound alone, 30 min, versus control cells

Compound | AR inhibition (in words) (human recombinant AR) | remaining activity at 71 µM (human recombinant AR) | Reversibility of PTP1B inhibition (PTP1B) | Phosphorylation level of Akt (C2C12 cells; [1]) | Phosphorylation level of insulin receptor (IR) (C2C12 cells; [1]) | Phosphorylation level of Akt (C2C12 cells; [2]) | Phosphorylation level of insulin receptor (IR) (C2C12 cells; [2]) | Effect on insulin signalling pathway (C2C12 cells)
CCCCCCCCCCCCCCC(OP(=O)(O)O)C(O)CCCO (centres unmarked) [Compound 3] | ineffective | 82 ± 3% | reversible inhibitors | not statistically different | not statistically different | increased with respect to control cells | increased with respect to control cells | acts as an insulin-mimetic agent; also recorded: evident insulin-mimetic activity
CCCCC[C@@H](OP(=O)(O)O)[C@@H](O)CC[C@H](CCCC)OC(C)=O (relative stereo) [Compound 8a] | – | 87 ± 2% | reversible inhibitors | – | – | – | – | did not improve the insulin signalling pathway; also recorded: completely inactive
